Assay results published in US20020151481A1, “MMP-2 propeptide for use as antiangiogenic or antitumor agent” (priority 2000, published 2002).

Test: Viability of cultured chondrosarcoma cells (crystal violet nuclear staining, OD590)
Assay type: cell-based
Settings: human, human chondrosarcoma cell line; crystal violet OD590 (FIG. 5); concentration not given; read-out: decrease in viable cell number
Procedure: Animal Cell Experiments. The effects of the MMP-2 propeptide on viability and metabolism of cultured animal cells was observed. A human chondrosarcoma cell line was cultured in both the presence and absence of 50 μg/ml recombinant MMP-2 propeptide (serum-free). Cultures were observed over a 48 hours period. Cell viability was monitored via crystal violet nuclear staining and absorption spectroscopy (OD590). Absorbance is proportional to cell number (Gillies, 1986, Anal. Biochem. 159:109-113). […] That MMP-2 had no effect on the cultured cancer cell line was not unexpected since the effects of angiogenesis inhibitors (such as angiostatin and endostatin) are believed to be restricted to […] endothelial cells.

COc1cc2c(cc1O)CCN[C@]21CS[C@@H]2c3c(OC(C)=O)c(C)c4c(c3[C@H](COC1=O)N1[C@@H]2[C@H]2c3c(cc(C)c(OC)c3O)C[C@@H]([C@@H]1O)N2C)OCO4 [ET-743]
cytotoxicity at 48 h: 50%
